Source: US11311568B2, “Therapeutic pharmaceutical composition for cancer including miRNA” (Purmx Therapeutics, Inc., priority 2017, dated 2022)
pIC50: −log10 of the molar value.

Tests used:
Assay type in all cases: cell-based
[1] = test system: breast cancer stem cell strain (MDA-MB231-luc-D3H2LN cells); assay: Cell growth inhibition, cell count after transfection; details: final concentration 12.5 nM, four days after transfection, FIG. 10 top
Procedure: miR-3140-3p was transfected in a highly metastatic cancer cell strain of breast cancer (MDA-MB231-luc-D3H2LN cells), and cell proliferation was observed. […] Transfection was carried out with the following protocol.
(§1) 1: To a 35 mm dish were added 500 μL of serum free medium (SFM) and 5 μL of RNAiMAX (Invitrogen).
2: To the solution from 1 was added 12.5 μL each of miR-Control or miR-3140-3p, miR-22-3p, and miR-34a-5p (stock conc. 2 μM) (final concentration 12.5 nM).
(§2) 3: This was incubated at room temperature for 20 minutes.
(§3) 4: 1.5 mL of a cell suspension diluted to 6.7×10^4 cells/mL was added to the 35 mm dish.
(§4) 5: This was incubated at 37° C. under 5% CO2 condition.
6: The cells were counted four days after transfection.

[2] = test system: large intestine cancer cell strain HCT116 (p53 deletion); assay: Screening in cancer cell strains, cell survival rate with PrestoBlue; details: Day 5 after transfection with RNAiMAX, compared with miR-34a-5p
Procedure: (§5) The 349 types of aging induction miRNA (mirVana; Ambion) obtained from screening were transfected into various cancer cell strains (large intestine cancer cell strain HCT116 (p53 wildtype and p53 deletion), pancreatic cancer cell strains BxPC-3 and CFPAC-1, and tongue cancer cell strain HSC-4) with an auto dispenser Bravo (Agilent).
(§6) Transfection was carried out with the following protocol.
(§7) 1: To 70 μL of serum free medium (SFM) was added 0.35 μL of RNAiMAX (Invitrogen).
(§8) 2: The solution from 1 was added to a 96-well plate (μ-plate; ibidi) with Bravo.
(§9) 3: To 2 was added 0.7 μL of miRNA (Stock Conc. 200 nM) with Bravo, and this was mixed by pipetting.
(§10) 4: This was incubated at room temperature for 20 minutes.
(§11) 5: A cell suspension diluted to 3.5×10^4 cells/mL was dispensed at 70 μL each with Bravo.
(§12) 6: This was incubated at 37° C. under 5% CO2 condition.
(§13) Setting the day of transfection as Day 0, on Day 5 the cell survival rate was evaluated with PrestoBlue (Invitrogen). The operating protocol is shown below.
(§14) 1. The medium was exchanged to a medium comprising PrestoBlue diluted 20-folds, and this was incubated at 37° C. for 1 hour. 2. The fluorescence value (Ex/Em=560 nm/590 nm) was measured with Enspire (Perkin Elmer).
(§15) 3. The cell survival rate was determined by setting the fluorescence value obtained from the well with only the reagent as the background.

[3] = test system: tongue cancer cell strain HSC-4; assay: as above; details: HSC-4, Day 5 after transfection with RNAiMAX, compared with miR-34a-5p
Procedure: as §5, §6, §7, §8, §9, §10, §11, §12, §13, §14, §15

[4] = test system: large intestine cancer cell strain HCT116 (p53 wildtype); assay: as above; details: Day 5 after transfection with RNAiMAX, compared with miR-34a-5p
Procedure: as §5, §6, §7, §8, §9, §10, §11, §12, §13, §14, §15

[5] = test system: pancreatic cancer cell strain BxPC-3; assay: as above; details: BxPC-3, Day 5 after transfection with RNAiMAX, compared with miR-34a-5p
Procedure: as §5, §6, §7, §8, §9, §10, §11, §12, §13, §14, §15

[6] = test system: pancreatic cancer cell strain CFPAC-1; assay: as above; details: CFPAC-1, Day 5 after transfection with RNAiMAX, compared with miR-34a-5p
Procedure: as §5, §6, §7, §8, §9, §10, §11, §12, §13, §14, §15

[7] = test system: malignant pleural mesothelioma cell EHMES-10; assay: Calculation of IC50 value, cell survival with Cell Counting Kit 8; details: five days after transfection
Procedure: The IC50 value of miR-3140-3p was calculated with malignant pleural mesothelioma cell EHMES-10.
The protocol therefor is shown below.
1: To 25 μL of serum free medium (SFM) was added 0.25 μL of RNAiMAX (Invitrogen).
2: miR-Control and miR-3140-3p were serially diluted so that the final concentrations will be 40 nM, 20 nM, 10 nM, 5 nM, 1 nM, 500 pM, 100 pM, 50 pM, 10 pM, 5 pM, and 1 pM, and mixed with SFM/RNAiMAX complex.
as §2
4: 75 μL of each of cells at 6.7×10^4 cells/mL were added to each well.
as §4
6: Five days after transfection, the survival rates of cells were investigated with Cell Counting Kit 8 (DOJINDO). The protocol therefor is shown below.
(i) Cell Counting Kit was diluted 10-folds with a medium.
(ii) 200 μL of each of the diluted Cell Counting Kit was added to each well.
(iii) This was incubated at 37° C. under 5% CO2 condition for 1 hour.
(iv) The values at 450 nm/600 nm were measured with a plate reader.
Note that the same control RNA as that used in Experiment 7 was employed as the control.

[8] = test system: lung cancer cell strain (A549); assay: Cell growth inhibition, cell count after transfection; details: A549, final concentration 10.0 nM, six days after transfection, FIG. 11
Procedure: miR-3140-3p was transfected into lung cancer cell strain (A549), and cell proliferation was observed. […] Transfection was carried out with the following protocol.
as §1
2: To the solution from 1 was added 1 μL each of miR-Control or miR-3140-3p, miR-22-3p, and miR-34a-5p (stock conc. 20 μM) (final concentration 10.0 nM).
as §2, §3, §4
6: The cells were counted six days after transfection.

[9] = test system: breast cancer stem cell strain (MDA-MB231-luc-D3H2LN cells); assay: Annexin V apoptosis marker expression by FACS; details: six days after transfection, FIG. 10 bottom
Procedure: Moreover, by the protocol below, the expression of apoptosis marker Annexin V in breast cancer cells transfected with miR-3140-3p was analyzed.
1: Transfection of miR-3140-3p was performed with a protocol similar to that described above.
2: Six days after transfection, cells were recovered together with the supernatant.
3: Samples for FACS were prepared according to the protocol of the Annexin V assay kit.
4: Cells stained by Annexin V-FITC were stained with an antibody against cancer stem cell marker CD44 (eBioScience).
5: The prepared samples were analyzed with Cell Sorter (SONY).

Substance: miR-3140-3p: Mature-miRNA, AGCUUUUGGGAAUUCAGGUAGU (SEQ ID NO. 2) (listed as RNA, chemistry not given here; listed as Homo sapiens)
- cell growth inhibition effect (cell count) [1]: extremely high cell growth inhibition effect
- suppression of cell proliferation (cell survival rate, PrestoBlue) [2]: suppress cell proliferation more significantly than miR-34-5p
- suppression of cell proliferation (cell survival rate, PrestoBlue) [3]: suppress cell proliferation more significantly than miR-34-5p
- suppression of cell proliferation (cell survival rate, PrestoBlue) [4]: suppress cell proliferation more significantly than miR-34-5p
- suppression of cell proliferation (cell survival rate, PrestoBlue) [5]: suppress cell proliferation more significantly than miR-34-5p
- suppression of cell proliferation (cell survival rate, PrestoBlue) [6]: suppress cell proliferation more significantly than miR-34-5p
- growth inhibition effect (survival rates of cells, Cell Counting Kit 8) ([7]; EHMES-10, 1 pM to 40 nM, FIG. 29): growth inhibition effect against malignant pleural mesothelioma cell strain EHMES-10 even at a very low concentration
- pIC50 ([7]; EHMES-10, final concentration, Cell Counting Kit 8): 9.24
- cell growth inhibition effect (cell count) [8]: extremely high cell growth inhibition effect
- apoptosis marker Annexin V positive [9]: 96.97%
